Measured values as given in patent US8952024B2, “Herbicidal pyrimidone derivatives” (E I du Pont de Nemours and Company, priority 2009, dated 2015).

Assays:
Type in all cases: in vivo
[1] = tested on: barnyardgrass (Echinochloa crus-galli); assay: Test A pre-/postemergence plant response
In short: (§1)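 Pre: directed soil spray on seeded loam/sand blend. Post: same formulation (non-phytotoxic solvent + surfactant) on 2–10 cm plants, 1–2 leaf stage. Greenhouse ~10 d; visual injury score 0–100 vs untreated.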

[2] = tested on: corn (Zea mays); assay: Test A pre-/postemergence plant response
In short: as §1

[3] = tested on: giant foxtail (Setaria faberii); assay: Test A pre-/postemergence plant response
In short: as §1

[4] = tested on: large crabgrass (Digitaria sanguinalis); assay: Test A pre-/postemergence plant response
In short: as §1

[5] = tested on: morningglory (Ipomoea spp.); assay: Test A pre-/postemergence plant response
In short: as §1

[6] = tested on: pigweed (Amaranthus retroflexus); assay: Test A pre-/postemergence plant response
In short: as §1

[7] = tested on: velvetleaf (Abutilon theophrasti); assay: Test A pre-/postemergence plant response
In short: as §1

[8] = tested on: wheat (Triticum aestivum); assay: Test A pre-/postemergence plant response
In short: as §1

[9] = tested on: cocklebur (Xanthium strumarium); assay: Test B pre-/postemergence plant response
From the text: (§2) Seeds of plant species selected from blackgrass (Alopecurus myosuroides), downy bromegrass (Bromus tectorum), green foxtail (Setaria viridis), Italian ryegrass (Lolium multiflorum), wheat (Triticum aestivum), wild oat (Avena fatua), deadnettle (henbit deadnettle, Lamium amplexicaule), galium (catchweed bedstraw, Galium aparine), bermudagrass (Cynodon dactylon), Surinam grass (Brachiaria decumbens), cocklebur (Xanthium strumarium), corn (Zea mays), large crabgrass (Digitaria sanguinalis), woolly cupgrass (Eriochloa villosa), giant foxtail (Setaria faberii), goosegrass (Eleusine indica), johnsongrass (Sorghum halepense), kochia (Kochia scoparia), lambsquarters (Chenopodium album), morningglory (Ipomoea coccinea), nightshade (eastern black nightshade, Solanum ptycanthum), yellow nutsedge (Cyperus esculentus), pigweed (Amaranthus retroflexus), ragweed (common ragweed, Ambrosia elatior), Russian thistle (Salsola kali), soybean (Glycine max), sunflower (common oilseed sunflower, Helianthus annuus) and velvetleaf (Abutilon theophrasti) were planted into a blend of loam soil and sand and treated preemergence with test compounds formulated in a non-phytotoxic solvent mixture which included a surfactant.
(§3) At the same time, plants selected from these crop and weed species and also winter barley (Hordeum vulgare), canarygrass (Phalaris minor), chickweed (Stellaria media) and windgrass (Apera spica-venti) were planted in pots containing Redi-Earth® planting medium (Scotts Company, 14111 Scottslawn Road, Marysville, Ohio 43041) comprising spaghnum peat moss, vermiculite, wetting agent and starter nutrients and treated with postemergence applications of some of the test chemicals formulated in the same manner. Plants ranged in height from 2 to 18 cm (1- to 4-leaf stage) for postemergence treatments.
(§4) Treated plants and controls were maintained in a greenhouse for 13 to 15 days, after which time all treated plants were visually evaluated and compared to controls. Plant response ratings, summarized in Table B, are based on a scale of 0 to 100 where 0 is no effect and 100 is complete control. A dash (-) response means no test result.

[10] = tested on: giant foxtail (Setaria faberii); assay: Test B pre-/postemergence plant response
From the text: as §2, §3, §4

[11] = tested on: green foxtail (Setaria viridis); assay: Test B pre-/postemergence plant response
From the text: as §2, §3, §4

[12] = Postemergence, 125 g ai/ha, 0 to 100 scale where 0 is no effect and 100 is complete control
[13] = Postemergence, 500 g ai/ha, 0 to 100 scale, 0 = no effect, 100 = complete control, approx. ten days
[14] = Preemergence, 125 g ai/ha, 0 to 100 scale, 0 = no effect, 100 = complete control
[15] = Preemergence, 500 g ai/ha, visual injury, 0 to 100 scale (0 no effect, 100 complete control), approx. ten days
[16] = 62 g ai/ha, postemergence, 0 is no effect, 100 is complete control, 13 to 15 days
[17] = Postemergence, 31 g ai/ha, 0 to 100 scale (0 no effect, 100 complete control)
[18] = Postemergence, 125 g ai/ha, scale 0 to 100 (0 no effect, 100 complete control)
[19] = Postemergence, 250 g ai/ha, scale 0 to 100 (0 no effect, 100 complete control)
[20] = Postemergence, 125 g ai/ha, visual injury, 0 to 100 scale (0 no effect, 100 complete control), approx. ten days
[21] = 250 g ai/ha, Preemergence, 0 to 100 scale
[22] = Postemergence, 31 g ai/ha, scale 0 to 100 (0 no effect, 100 complete control)
[23] = Postemergence, 62 g ai/ha, scale 0 (no effect) to 100 (complete control), 13 to 15 days
[24] = Postemergence, 125 g ai/ha, visual rating after 13 to 15 days, scale 0 (no effect) to 100 (complete control)
[25] = Postemergence, 250 g ai/ha, scale 0 to 100
[26] = Preemergence, 31 g ai/ha, scale 0 to 100 (0 no effect, 100 complete control)
[27] = Preemergence, 62 g ai/ha, scale 0 to 100, 0 no effect, 100 complete control
[28] = Preemergence, 125 g ai/ha, 0 to 100 scale

COCCCn1c(-c2cccc(F)c2)ncc(C(=O)C2=C(O)CCCC2=O)c1=O [Compound 126]
15: Plant response rating, Cocklebur [9, 17]
20: Plant response rating, Corn [2, 15] | Plant response rating, Wheat [8, 13] | Plant response rating, Wheat [8, 15]
65: Cocklebur plant response rating (0 to 100 scale) [9, 16]
0: Plant response rating, Corn [2, 14] | Plant response rating, Wheat [8, 12] | Plant response rating, Wheat [8, 14]
80: Plant response rating, Barnyardgrass [1, 12] | Plant response rating, Foxtail, Giant [3, 13] | Plant response rating, Velvetleaf [7, 14] | Plant response rating, Cocklebur [9, 18] | Foxtail, Giant plant response rating (0 to 100 scale) [10, 16] | Foxtail, Green plant response rating (0 to 100 scale) [11, 16]
90: Plant response rating, Barnyardgrass [1, 13] | Plant response rating, Foxtail, Giant [3, 15] | Plant response rating, Crabgrass, Large [4, 12] | Plant response rating, Crabgrass, Large [4, 13] | Plant response rating, Crabgrass, Large [4, 14] | Plant response rating, Morningglory [5, 15] | Plant response rating, Pigweed [6, 12] | Plant response rating, Foxtail, Giant [10, 19] | Plant response rating, Foxtail, Green [11, 18]
60: Plant response rating, Corn [2, 13] | Plant response rating, Foxtail, Giant [3, 14]
10: Plant response rating, Corn [2, 12]
95: Plant response rating, Foxtail, Green [11, 19]
100: Plant response rating, Barnyardgrass [1, 15] | Plant response rating, Crabgrass, Large [4, 15] | Plant response rating, Morningglory [5, 12] | Plant response rating, Morningglory [5, 13] | Plant response rating, Pigweed [6, 13] | Plant response rating, Pigweed [6, 14] | Plant response rating, Pigweed [6, 15] | Plant response rating, Velvetleaf [7, 12] | Plant response rating, Velvetleaf [7, 13] | Plant response rating, Velvetleaf [7, 15]
85: Plant response rating, Foxtail, Giant [10, 18]
70: Plant response rating, Barnyardgrass [1, 14] | Plant response rating, Foxtail, Giant [3, 12] | Plant response rating, Morningglory [5, 14] | Plant response rating, Foxtail, Giant [10, 17]
50: Plant response rating, Foxtail, Green [11, 17]
98: Plant response rating, Cocklebur [9, 19]

5-[(1-ethyl-5-hydroxy-1H-pyrazol-4-yl)carbonyl]-2-phenyl-3-(phenylmethyl)-4(3H)-pyrimidinone [Compound 20]
70: Cocklebur plant response rating [9, 28]
30: Plant response rating, Barnyardgrass [1, 14] | Foxtail, Giant plant response rating [3, 20]
90: Plant response rating, Barnyardgrass [1, 13] | Crabgrass, Large plant response rating [4, 20] | Plant response rating, Crabgrass, Large [4, 13] | Plant response rating, Morningglory [5, 13] | Plant response rating, Velvetleaf [7, 15]
0: Corn plant response rating [2, 20] | Plant response rating, Corn [2, 14] | Plant response rating, Corn [2, 15] | Plant response rating, Foxtail, Giant [3, 14] | Plant response rating, Morningglory [5, 14] | Wheat plant response rating [8, 20] | Plant response rating, Wheat [8, 14] | Plant response rating, Wheat [8, 15] | Plant response rating, Foxtail, Giant [10, 21] | Plant response rating, Foxtail, Giant [10, 26] | Plant response rating, Foxtail, Giant [10, 27] | Foxtail, Giant plant response rating [10, 28] | Plant response rating, Foxtail, Green [11, 21] | Plant response rating, Foxtail, Green [11, 26] | Plant response rating, Foxtail, Green [11, 27] | Foxtail, Green plant response rating [11, 28]
100: Plant response rating, Morningglory [5, 15] | Pigweed plant response rating [6, 20] | Plant response rating, Pigweed [6, 13] | Plant response rating, Pigweed [6, 15] | Velvetleaf plant response rating [7, 20] | Plant response rating, Velvetleaf [7, 13] | Plant response rating, Cocklebur [9, 21] | Cocklebur plant response rating [9, 25]
60: Plant response rating, Barnyardgrass [1, 15] | Plant response rating, Foxtail, Giant [3, 13] | Plant response rating, Foxtail, Giant [10, 24]
80: Plant response rating, Crabgrass, Large [4, 15] | Morningglory plant response rating [5, 20] | Plant response rating, Pigweed [6, 14] | Plant response rating, Velvetleaf [7, 14] | Plant response rating, Cocklebur [9, 23]
85: Plant response rating, Cocklebur [9, 24]
65: Plant response rating, Cocklebur [9, 22] | Foxtail, Giant plant response rating [10, 25]
50: Barnyardgrass plant response rating [1, 20] | Plant response rating, Crabgrass, Large [4, 14] | Foxtail, Green plant response rating [11, 25]
35: Plant response rating, Foxtail, Green [11, 24]
15: Plant response rating, Foxtail, Giant [10, 22]
10: Plant response rating, Corn [2, 13] | Plant response rating, Foxtail, Giant [3, 15] | Plant response rating, Wheat [8, 13] | Plant response rating, Cocklebur [9, 26] | Plant response rating, Cocklebur [9, 27] | Plant response rating, Foxtail, Green [11, 23]
45: Plant response rating, Foxtail, Giant [10, 23]
5: Plant response rating, Foxtail, Green [11, 22]
